Data taken from patent publication US8026211B2, “Methods and formulations for increasing intestinal function” (Technion Research & Development Foundation Ltd., priority 2004, dated 2011).

Legend:
enterocytes = experiment: Rat ischemia-reperfusion injury: enterocyte apoptosis (TUNEL assay); format: in vivo; settings: IR rats, oral insulin; IR-untreated 2.8±0.7; p<0.05
Procedure: (§1) Surgical procedure: Following overnight fasting, the animals were anesthetized with intraperitoneal injection of pentobarbital (IP 40 mg/kg). Using sterile techniques, the abdomen was opened using a midline incision. […] IR underwent laparotomy, mobilization and occlusion of SMA and portal vein by vascular clamp for 30 minutes followed by a reperfusion period of 24 hours. Before closure of the abdomen, the rats were resuscitated with a 3-ml intraperitoneal injection of warm 0.9% saline. For all operations, the abdominal cavity was closed in two layers with a running suture of Dexon “S” Polyglycolic Acid 3/0. Rats were allowed free access to water and food. Twenty-four hours later, the rats were anesthetized with intraperitoneal pentobarbital (75 mg/kg) and were sacrificed by open pneumothorax.
Apoptotic cells were identified using the terminal deoxynucleotidyl transferase-mediated, dUTP nick end-labeling (TUNEL) assay. Terminal deoxynucleotidyl transferase (TdT) (Boehringer Mannheim GmbH, Mannheim, Germany) was used to label DNA strand breaks. Incorporation of fluorescein was detected by anti-fluorescein antibody Fab fragments from sheep, conjugated with horse-radish peroxidase (POD) (Boehringer Mannheim GmbH, Mannheim, Germany). Briefly, five-micrometer paraffin-embedded sections were dewaxed and rehydrated with xylene and graded alcohol. […]

[1] = tested on: ischemia-reperfusion (IR) injury in rats; experiment: Rat ischemia-reperfusion injury: survival and intestinal mucosal parameters (bowel and mucosal weight, DNA, protein); format: in vivo
Procedure: Animals: Animals were obtained from the Rappaport Faculty of Medicine (Technion, Haifa, Israel). Male rats weighing 240-260 g were kept in individual stainless steel cages at constant temperature and humidity, and a 12-hour light-dark cycle was maintained. Rats were fasted 12 hours prior to the experiment with free access to water.
as §1
Intestinal Mucosal Parameters: The small intestine from the pylorus to the ileo-cecal valve was removed and divided into two segments: proximal jejunum and distal ileum. The intestine was split on the antimesenteric border, washed with cold saline, dried, and each segment was weighed. The mucosa was scraped from the underlying tissue with a glass slide and weighed. Bowel and mucosal weights were calculated as mg/cm bowel length/100 g body weight. Mucosal samples were homogenized with TRIzol reagent (Rhenium LTD, Jerusalem). DNA and protein were extracted by the method of Chomczynski [BioTechniques. 15:532, 1993] and were expressed as micrograms per centimeter of bowel per 100 g of body weight. In brief, 100 mg tissue was mixed with 1 ml of TRIzol reagent and homogenized for 2 min. Following a three minute incubation period and centrifugation the contents separated into three phases. DNA was isolated from the interphase using ethanol, washed with sodium citrate and was stabilised with 75% ethanol. Protein was isolated from the lower phase using isopropyl alcohol, washed with guanidine hydrochloride, and stabilised with 100% ethanol. Quantitation of DNA was performed with a spectrophotomer. Concentration of the final protein concentration was detected using Bio-Rad Protein Assay technique.
Statistical analysis: All data are given as mean±SD. Differences between experimental groups were tested for statistical significance (p<0.05) using the nonparametric Kruskal-Wallis ANOVA test, followed by the corrected Mann-Whitney test.

[2] = tested on: jejunal and ileal crypt cells; experiment: Rat ischemia-reperfusion injury: crypt cell proliferation (5-BrdU); format: in vivo; settings: IR rats, oral insulin, p<0.05
Procedure: as §1
Enterocyte proliferation and apoptosis: Crypt cell proliferation was assessed using 5-bromodeoxyuridine (5-BrdU). Standard BrdU labeling reagent (Zymed Laboratories, Inc, San Francisco, Calif.) was injected intraperitoneally at a concentration of 1 ml/100 g body weight 2 hours prior to sacrifice. […] An index of proliferation was determined as the ratio of crypt cells staining positively for BrdU per 10 crypts.

infants with SBS = experiment: Oral insulin supplementation in infants with SBS (clinical evaluation); format: in vivo, human
Description: 1. Infants with less than 30 cm of small intestine (with ileo-cecal valve intact).
2. Infants with less than 40 cm without ileo-cecal valve.
3. Infants and children younger than 10 years of age, with SBS who are […] nutrition dependent and are not expected to be weaned of […] nutrition
Exclusion criteria: Infants in an unstable condition such as sepsis, acute gastroenteritis, pneumonia.
Dosage: 1 unit of insulin (Actrapid, Novonordisk, Denmark)/kg body weight per dose×4/day (every 6 hours) was administered for 28 days. Insulin was administered every six hours. Insulin will be provided as 1 u/ml of 0.45 NaCl orally.
Glucose monitoring: Following the first insulin dose, blood glucose levels were measured, immediately prior to the first and second meal following the first dose of insulin. Measurements were repeated for the first three days following supplementation and then weekly (days 7, 14, 21 and 28)
The clinical evaluation of the patients' conditions included the following parameters:
1. Weight, length, head circumference, MAC (mid arm circumference), TSF (triceps skin fold)—weekly
3. […] intake of calories, carbohydrates, lipids
4. Blood concentration levels of glucose, albumin, ALT, AST, GGT, ALP, total cholesterol, triglycerides (fasting), HDL-cholesterol, insulin (fasting, before insulin administration)
5. Blood amino acid levels
6. Insulin antibodies. 1 ml of serum was removed prior to treatment and at day 28 following treatment. The samples were frozen at −70° C. and sent, on dry ice, to Division of Pediatric Gastroenterology and Nutrition, Meyer Children's Hospital of Haifa, Bat-Galim 31096, Haifa for analysis.

[3] = IR-INS rats, 24 h reperfusion, IR 18±3, p<0.05
[4] = infant with SBS, oral insulin started, within a few days after initiation

In the case of insulin, the “apoptotic index in ileum” value (enterocytes) is reported as 1.2±0.4 TUNEL positive cells/10 villi, the post-operative mortality ([1]; IR rats, insulin in drinking water (2%) 3 days prior to and 24 hours following IR) is reported as “no effect” and the ileal mucosal weight ([1]; IR-INS rats, 24 h reperfusion, IR 5.9±0.6, p<0.05) is reported as 7.3±0.4 mg/cm/100 g. The jejunal mucosal weight ([1]; IR-INS rats, 24 h reperfusion, IR 7.0±0.6, p<0.05) was 8.9±0.6 mg/cm/100 g, the “mucosal protein in ileum” value [1, 3] was 25±2 μg/cm/100 g and the “mucosal protein in jejunum” value [1, 3] was 28±3 μg/cm/100 g. For the same substance, the “jejunal intestinal (bowel) weight” value ([1]; IR-INS rats, 24 h reperfusion, IR 20.1±0.7, p<0.05) was 23±0.8 mg/cm/100 g, the “enterocyte proliferation index in ileum” value ([2]; IR 173±8) was 289±26 BrdU positive cells/10 crypts and the “enterocyte proliferation index in jejunum” value ([2]; IR 212±18) was 298±21 BrdU positive cells/10 crypts. The stool output (infants with SBS; human infants with SBS, oral insulin 1 unit/kg per dose x4/day) was “reduced stool output”, the jaundice (infants with SBS; [4]) was “decrease in jaundice” and the “need for parenteral nutrition” value (infants with SBS; [4]) was “reduced need for parenteral nutrition”. For the same substance, the oral feeds (infants with SBS; [4]) was “increase in oral feeds”, the clinical outcome (infants with SBS; infant with SBS, three months following the addition of insulin) was “discharged from hospital, thriving and on full oral feeds” and the parenteral nutrition status (infants with SBS; infant with SBS, two months following the addition of oral insulin) was “parenteral nutrition was stopped”.
